# Test results: patent publication US6387947B1, “Antimicrobial cosmetic compositions” (E-L Management Corp., priority 1997, dated 2002)
# Test: antiirritant effect against Balsam of Peru on ventral forearms of volunteers
# Format: in vivo, human
# Settings: 0.1% in hydroalcohol 1:1, applied twenty minutes before Balsam of Peru; Minolta Chromameter; seven volunteers
# Procedure: Seven volunteers with a history of skin sensitivity to Balsam of Peru are chosen for the study.
# The test compounds are applied to the ventral forearms of panelists. The material is allowed to absorb for twenty minutes and then Balsam of Peru, an irritant is applied on the test sites. Skin irritation is measured in terms of increase in skin redness. The degree of redness is measured with a Minolta Chromameter and compared with the controls, the positive control being skin treated with Balsam of Peru alone, and the negative control being a skin site treated with 10% cola solution(a known antiirritant), and challenged like the test products.
compound,measurement,value
"COc1cc(/C=C/C(=O)O)ccc1O [Ferulic acid, ferulic acid]",effectiveness in preventing the onset of irritation (reduction of skin redness),72%
